Laboratory results as given in PMC9081329, “Pharmacokinetics, Mass Balance, Excretion, and Tissue Distribution of Plasmalogen Precursor PPI-1011” (Frontiers in Cell and Developmental Biology, 2022).

Test: Single dose tissue distribution study (QWBA, LSC of blood and plasma)
Type: in vivo, Sprague-Dawley rats
Description: Six male rats were administered a single oral dose of [^14C]PPI-1011 at 100 mg/kg (200 μCi/kg) and one rat was sacrificed at each of the following time points after the administration of the dose: 8, 12, 18, 24, 48, or 168 h. Terminal blood was collected by cardiac puncture directly into tubes with K2EDTA, an aliquot was stored at 4°C until LSC was performed for radioactivity, while the remaining blood was processed to plasma and stored at −20°C until LSC. Following blood collection, the carcasses were frozen in a cold bath with hexanes and dry ice for at least 8 min and then dried and stored at −70°C for at least 5 h. The carcasses were transferred to a −20°C freezer for at least 12 h before embedding.
QWBA was used to determine radioactivity concentrations in the caecum (contents and mucosa), large intestine (contents and mucosa), small intestine (contents and mucosa), stomach (contents and mucosa), brain, choroid plexus, spinal cord, bone, skin, adrenal gland, pineal body, pituitary gland, thyroid gland, liver, kidney (cortex, medulla and whole kidney), urinary bladder (contents and wall), brown fat, white fat, eye (lens, uveal tract and whole eye), epididymis, prostate gland, testis, ovary, uterus, lung, exorbital lachrymal gland, Harderian gland, pancreas, salivary gland, skeletal muscle, myocardium, cardiac blood, bone marrow, lymph node, spleen, and thymus. As well, LSC was used to determine the total radioactivity in the whole blood and plasma.
The whole-body cryosectioning technique described by ([Ullberg, 1977]) was the basis for embedding and cryosectioning the rats assigned to this study. Each frozen carcass was shaved, and then the limbs and tail were removed prior to embedding. Chilled (4°C) 3% CMC (low viscosity) was utilized to provide a firm support of reinforced ice around each rat and for a secure attachment to the microtome stage. Upon thorough freezing of the embedding medium surrounding each rat, the frozen CMC block was removed from the freezing bath and four 3/8 inch holes were drilled into the block. One cryosection quality control standard (CQCS) was prepared with a known amount of radioactivity and at least 1 ml aliquots were added to each of the four drilled holes. CQCS data were utilized to evaluate the overall performance of the QWBA assay.
Each frozen rat was sagittally trimmed (50–100 μm) at −20°C until exposure of a few target tissues employing a Leica Cryomacrocut heavy-duty microtome (Leica Microsystems Inc.,). Disposable stainless steel Feather type H45L knives (Feather Safety Razor Co., Ltd.) were utilized for trimming and sectioning each frozen rat. Several thinner sections (50 μm) were discarded prior to obtaining multiple 50 μm sections at various cryosectioning levels for QWBA analysis. Upon the collection of at least 60 target tissues in multiple cryosectioning levels, the cryosections were kept in the Cryomacrocut cryochamber for a minimum of 18 h for dehydration depending upon the number of cryosections within the cryochamber. After dehydration was complete, the cryosections were transferred to ambient temperature for processing. Mounted whole-body cryosections and a set of 15 standards were sandwiched between a standard phosphor screen and an exposure cassette. All cryosections were exposed to the phosphor screen for 4-days in a cabinet protected with lead prior to scanning using a Typhoon PhosphorImager (Cytiva). MCID™ Analysis software (InterFocus Ltd.) was utilized to generate a calibration curve of the STD nominal concentrations (nCi/g) versus PhosphorImager response (counts/μm^2 minus background) by weighted (1/x) linear regression analysis ([Potchoiba et al., 1995]; [Potchoiba et al., 1998]). The linear regression curve was then utilized to determine the concentration (nCi/g) of total radioactivity in whole-body tissues and blood. Radioactivity concentrations were expressed as μg Eq/g based on the specific activity of the compound in the final dose formulations. […]

[1] = 48 h post single oral 100 mg/kg
[2] = 168 h post single oral 100 mg/kg

CC/C=C\C/C=C\C/C=C\C/C=C\C/C=C\C/C=C\CCC(=O)O[C@H](CO[14CH2]CCCCCCCCCCCCCCC)COC(=O)CCCCC1CCSS1 (stereo partly shown) [[^14C]PPI-1011]
Radioactivity concentration, Small Intestines [1]: 43.3 μg equivalents/g
Radioactivity concentration, Spinal Cord [1]: 2.56 μg equivalents/g
Radioactivity concentration, Spleen [1]: 33.1 μg equivalents/g
Radioactivity concentration, Stomach [1]: 8.01 μg equivalents/g
Radioactivity concentration, Testis [1]: 4.02 μg equivalents/g
Radioactivity concentration, Thalamus [1]: 1.91 μg equivalents/g
Radioactivity concentration, Thymus [1]: 9.58 μg equivalents/g
Radioactivity concentration, Thyroid [1]: 27.2 μg equivalents/g
Radioactivity concentration, Whole Brain [1]: 2.45 μg equivalents/g
Radioactivity concentration, Adipose - Brown [2]: 89.0 μg equivalents/g
Radioactivity concentration, Adipose - Brown (Vessel Wall) [2]: 76.7 μg equivalents/g
Radioactivity concentration, Adipose - Subcutaneous [2]: 89.3 μg equivalents/g
Radioactivity concentration, Adipose - Visceral [2]: 90.7 μg equivalents/g
Radioactivity concentration, Adrenal Gland [2]: 142 μg equivalents/g
Radioactivity concentration, Bladder Wall [2]: < 0.485 μg equivalents/g
Radioactivity concentration, Blood - QWBA [2]: 2.56 μg equivalents/g
Radioactivity concentration, Bone Marrow [2]: 4.69 μg equivalents/g
Radioactivity concentration, Cerebellum [2]: 3.59 μg equivalents/g
Radioactivity concentration, Cerebrum [2]: 2.94 μg equivalents/g
Radioactivity concentration, Choroid Plexus [2]: 10.4 μg equivalents/g
Radioactivity concentration, Colliculus [2]: 3.97 μg equivalents/g
Radioactivity concentration, Diaphragm [2]: 11.7 μg equivalents/g
Radioactivity concentration, Epididymis [2]: 7.75 μg equivalents/g
Radioactivity concentration, Esophagus [2]: 5.34 μg equivalents/g
Radioactivity concentration, Exorbital Lacrimal Gland [2]: 7.36 μg equivalents/g
Radioactivity concentration, Gastric Mucosa [2]: 14.5 μg equivalents/g
Radioactivity concentration, Harderian Gland [2]: 3.67 μg equivalents/g
Radioactivity concentration, Intra-Orbital Lacrimal Gland [2]: 5.01 μg equivalents/g
Radioactivity concentration, Kidney [2]: 14.5 μg equivalents/g
Radioactivity concentration, Large Intestines [2]: 14.0 μg equivalents/g
Radioactivity concentration, Liver [2]: 7.50 μg equivalents/g
Radioactivity concentration, Lung [2]: 11.2 μg equivalents/g
Radioactivity concentration, Lymph Node [2]: 12.3 μg equivalents/g
Radioactivity concentration, Medulla Oblongata [2]: 3.13 μg equivalents/g
Radioactivity concentration, Muscle [2]: 7.01 μg equivalents/g
Radioactivity concentration, Myocardium [2]: 13.4 μg equivalents/g
Radioactivity concentration, Nasal Turbinates [2]: 4.29 μg equivalents/g
Radioactivity concentration, Ocular - Uveal Tract [2]: 6.48 μg equivalents/g
Radioactivity concentration, Ocular - Whole Eye [2]: 1.55 μg equivalents/g
Radioactivity concentration, Olfactory Bulb [2]: 2.25 μg equivalents/g
Radioactivity concentration, Pancreas [2]: 18.2 μg equivalents/g
Radioactivity concentration, Parotid Gland [2]: 12.3 μg equivalents/g
Radioactivity concentration, Pineal Gland [2]: 12.0 μg equivalents/g
Radioactivity concentration, Pituitary Gland [2]: 12.9 μg equivalents/g
Radioactivity concentration, Preputial Gland [2]: 69.0 μg equivalents/g
Radioactivity concentration, Prostate [2]: 4.44 μg equivalents/g
Radioactivity concentration, Renal Cortex [2]: 15.3 μg equivalents/g
Radioactivity concentration, Renal Medulla [2]: 11.8 μg equivalents/g
Radioactivity concentration, Salivary Gland [2]: 15.4 μg equivalents/g
Radioactivity concentration, Seminal Vesicles [2]: < 0.485 μg equivalents/g
Radioactivity concentration, Skin - Non-Pigmented [2]: 10.2 μg equivalents/g
Radioactivity concentration, Small Intestines [2]: 139 μg equivalents/g
Radioactivity concentration, Spinal Cord [2]: 3.33 μg equivalents/g
Radioactivity concentration, Spleen [2]: 9.36 μg equivalents/g
Radioactivity concentration, Stomach [2]: 4.97 μg equivalents/g
Radioactivity concentration, Testis [2]: 3.08 μg equivalents/g
Radioactivity concentration, Thalamus [2]: 2.78 μg equivalents/g
Radioactivity concentration, Thymus [2]: 7.84 μg equivalents/g
Radioactivity concentration, Thyroid [2]: 18.9 μg equivalents/g
Radioactivity concentration, Whole Brain [2]: 3.08 μg equivalents/g
Decline of radioactivity from peak concentration, brown adipose (by 168 HPD, single dose): approximately 5 fold
Decline of radioactivity from peak concentration, subcutaneous adipose (by 168 HPD, single dose): ~2 fold
Decline of radioactivity from peak concentration, visceral adipose (by 168 HPD, single dose): ~3 fold
Average concentration in choroid plexus, pineal gland, pituitary gland versus non-circumventricular CNS tissues (seven days after single dose): approximately 4 fold
Radioactivity in urine within the urinary bladder (single dose): no detection of radioactivity
Time of highest blood concentration (single dose): 8 HPD
Time of highest peak concentration, bladder wall (single dose): 8 HPD
Time of highest peak concentration, brown adipose (single dose): 12 HPD
Time of highest peak concentration, cecum (single dose): 12 HPD
Time of highest peak concentration, choroid plexus (single dose): 12 HPD
Time of highest peak concentration, epididymis (single dose): 12 HPD
Time of highest peak concentration, esophagus (single dose): 8 HPD
Time of highest peak concentration, gastric mucosa (single dose): 8 HPD
Time of highest peak concentration, large intestines (single dose): 12 HPD
Time of highest peak concentration, pineal gland (single dose): 48 HPD
Time of highest peak concentration, pituitary gland (single dose): 18 HPD
Time of highest peak concentration, preputial gland (single dose): 12 HPD
Time of highest peak concentration, prostate (single dose): 24 HPD
Time of highest peak concentration, small intestines (single dose): 8 HPD
Time of highest peak concentration, stomach (single dose): 12 HPD
Time of highest peak concentration, subcutaneous adipose (single dose): 12 HPD
Time of highest peak concentration, testis (single dose): 18 HPD
Time of highest peak concentration, visceral adipose (single dose): 12 HPD
Time of peak levels, non-circumventricular CNS tissue (single dose): 168 HPD
Concentration in choroid plexus, pineal gland, pituitary gland versus non-circumventricular CNS tissues (throughout the time course, single dose): approximately 4 fold
